Results as given in patent publication US12146004B2, “Polymyxin compounds and uses thereof” (priority 2014, dated 2024).
Converted amounts (≈) assume the structure as drawn. Like-named read-outs stand apart in the source and are kept apart here.

Tests used:
Type in all cases: cell-based
[1] = test system: Escherichia coli
In short: (§1)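 Susceptibility testing covered up to nine strains of each Gram-negative pathogen, among them resistant strains and strains with elevated MICs to Polymyxin. Values are MICs in μg/mL.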

[2] = test system: Pseudomonas aeruginosa
In short: as §1

[3] = test system: Acinetobacter baumannii
In short: as §1

[4] = test system: Klebsiella pneumoniae
In short: as §1

Row | MIC E. coli 058 [1] | MIC E. coli 061 [1] | MIC E. coli ATCC 25922 [1] | MIC P. aeruginosa 068 [2] | MIC P. aeruginosa 070 [2] | MIC P. aeruginosa ATCC 27853 [2] | MIC P. aeruginosa CCUG 59347 [2] | MIC A. baumanii 053 [3] | MIC A. baumanii 056 [3] | MIC A. baumanii ATCC BAA-747 [3] | MIC A. baumanii NCTC 13424 [3] | MIC K. pneumoniae 063 [4] | MIC K. pneumoniae 065 [4] | MIC K. pneumoniae ATCC 13882 [4] | Structure (SMILES) | further results
1 | 8 µg/mL (≈ 7.04 µM) | 32 µg/mL (≈ 28.2 µM) | 0.125 µg/mL (≈ 0.11 µM) | 8 µg/mL (≈ 7.04 µM) | 32 µg/mL (≈ 28.2 µM) | 0.25 µg/mL (≈ 0.22 µM) | 0.5 µg/mL (≈ 0.44 µM) | 32 µg/mL (≈ 28.2 µM) | 16 µg/mL (≈ 14.1 µM) | 0.25 µg/mL (≈ 0.22 µM) | 0.25 µg/mL (≈ 0.22 µM) | 64 µg/mL (≈ 56.3 µM) | 8 µg/mL (≈ 7.04 µM) | 0.125 µg/mL (≈ 0.11 µM) | CC(C)C[C@@H]1NC(=O)[C@@H](CC2CCCCC2)NC(=O)[C@H](CCN)NC(=O)[C@@H](NC(=O)[C@H](CCN)NC(=O)[C@@H](NC(=O)C(CCN)c2cccs2)[C@@H](C)O)CCNC(=O)[C@H]([C@@H](C)O)NC(=O)[C@H](CCN)NC(=O)[C@H](CCN)NC1=O (single isomer, unassigned; isomer 2) [Example 70, 4-amino-2-(thiophen-2-yl)butanoyl polymyxin [D-cyclohexylalanine]-6 nonapeptide isomer 2] | 
2 | 2 µg/mL (≈ 1.8 µM) | 8 µg/mL (≈ 7.2 µM) | 0.125 µg/mL (≈ 0.113 µM) | 2 µg/mL (≈ 1.8 µM) | 2 µg/mL (≈ 1.8 µM) | 0.25 µg/mL (≈ 0.225 µM) | 0.5 µg/mL (≈ 0.45 µM) | 64 µg/mL (≈ 57.6 µM) | 32 µg/mL (≈ 28.8 µM) | 0.125 µg/mL (≈ 0.113 µM) | 0.125 µg/mL (≈ 0.113 µM) | 8 µg/mL (≈ 7.2 µM) | 2 µg/mL (≈ 1.8 µM) | 0.25 µg/mL (≈ 0.225 µM) | CC(C)CCC(CCN)C(=O)N[C@H](C(=O)N[C@@H](CN)C(=O)N[C@H]1CCNC(=O)[C@H]([C@@H](C)O)NC(=O)[C@H](CCN)NC(=O)[C@H](CCN)NC(=O)[C@H](CC(C)C)NC(=O)[C@@H](CC2CCCCC2)NC(=O)[C@H](CCN)NC1=O)[C@@H](C)O (single isomer, unassigned; isomer 2) [Example 80, 2-(2-aminoethyl)-5-methylhexanoyl L-Thr-L-Dap-polymyxin [D-cyclohexylalanine-6]heptapeptide. isomer 2] | MIC E. coli NCTC 9001 [1]: 0.03 µg/mL (≈ 0.027 µM); MIC K. pneumoniae ATCC 4352 [4]: 0.06 µg/mL (≈ 0.054 µM)
3 |  |  |  |  |  |  |  |  |  |  |  |  |  |  | CC(C)C[C@@H]1NC(=O)[C@@H](CC2CCCCC2)NC(=O)[C@H](CCN)NC(=O)[C@@H](NC(=O)[C@H](CCN)NC(=O)[C@@H](NC(=O)CC(CN)C2CCCCC2)[C@@H](C)O)CCNC(=O)[C@H]([C@@H](C)O)NC(=O)[C@H](CCN)NC(=O)[C@H](CCN)NC1=O (single isomer, unassigned; isomer 2) [Example 87, 4-amino-3-cyclohexylbutanoyl polymyxin [D-cyclohexylalanine-6]nonapeptide. Isomer 2] | MIC E. coli 058 ([1]; strain 058): 4 µg/mL (≈ 3.52 µM); MIC E. coli 061 ([1]; strain 061): 16 µg/mL (≈ 14.1 µM); MIC E. coli ATCC 25922 ([1]; strain ATCC 25922): 0.125 µg/mL (≈ 0.11 µM); MIC E. coli NCTC 9001 ([1]; strain NCTC 9001): 0.125 µg/mL (≈ 0.11 µM); MIC P. aeruginosa 068 ([2]; strain 068): 2 µg/mL (≈ 1.76 µM); MIC P. aeruginosa 070 ([2]; strain 070): 8 µg/mL (≈ 7.04 µM); MIC P. aeruginosa ATCC 27853 ([2]; strain ATCC 27853): 0.25 µg/mL (≈ 0.22 µM); MIC P. aeruginosa CCUG 59347 ([2]; strain CCUG 59347): 0.5 µg/mL (≈ 0.44 µM); MIC A. baumanii 053 ([3]; strain 053): 64 µg/mL (≈ 56.3 µM); MIC A. baumanii 056 ([3]; strain 056): 64 µg/mL (≈ 56.3 µM); MIC A. baumanii ATCC BAA-747 ([3]; strain ATCC BAA-747): 0.25 µg/mL (≈ 0.22 µM); MIC A. baumanii NCTC 13424 ([3]; strain NCTC 13424): 0.125 µg/mL (≈ 0.11 µM); MIC K. pneumoniae 063 ([4]; strain 063): 16 µg/mL (≈ 14.1 µM); MIC K. pneumoniae 065 ([4]; strain 065): 0.5 µg/mL (≈ 0.44 µM); MIC K. pneumoniae ATCC 13882 ([4]; strain ATCC 13882): 0.25 µg/mL (≈ 0.22 µM)
4 | 16 µg/mL (≈ 14.2 µM) |  | 0.125 µg/mL (≈ 0.111 µM) |  |  | 0.5 µg/mL (≈ 0.445 µM) | 1 µg/mL (≈ 0.889 µM) |  |  | 0.5 µg/mL (≈ 0.445 µM) | 0.25 µg/mL (≈ 0.222 µM) |  | 32 µg/mL (≈ 28.5 µM) | 0.25 µg/mL (≈ 0.222 µM) | CC(C)CCC(CCN)C(=O)N[C@H](C(=O)N[C@@H](CCN)C(=O)N[C@H]1CCNC(=O)[C@H]([C@@H](C)O)NC(=O)[C@H](CCN)NC(=O)[C@H](CCN)NC(=O)[C@H](CC(C)C)NC(=O)[C@@H](CC2CCCCC2)NC(=O)[C@H](CCN)NC1=O)[C@@H](C)O (single isomer, unassigned; isomer 2) [Example 89, 2-(2-aminoethyl)-5-methylhexanoyl polymyxin [D-cyclohexylalanine-6]nonapeptide. Isomer 2] | 
